Reference: patent US20110144056A1, “PYRAZOLE DERIVATIVES USEFUL AS INHIBITORS OF FAAH” (priority 2008, published 2011)
pIC50: −log10 of the molar value.

Target: T1, FAAH (Homo sapiens, UniProt O00519)
T1 construct: The full length FAAH was subcloned into the mammalian expression vector, pcDEF.neo; expressed in transfected cells; cDNA from Origene
T1 sequence (O00519 1-579): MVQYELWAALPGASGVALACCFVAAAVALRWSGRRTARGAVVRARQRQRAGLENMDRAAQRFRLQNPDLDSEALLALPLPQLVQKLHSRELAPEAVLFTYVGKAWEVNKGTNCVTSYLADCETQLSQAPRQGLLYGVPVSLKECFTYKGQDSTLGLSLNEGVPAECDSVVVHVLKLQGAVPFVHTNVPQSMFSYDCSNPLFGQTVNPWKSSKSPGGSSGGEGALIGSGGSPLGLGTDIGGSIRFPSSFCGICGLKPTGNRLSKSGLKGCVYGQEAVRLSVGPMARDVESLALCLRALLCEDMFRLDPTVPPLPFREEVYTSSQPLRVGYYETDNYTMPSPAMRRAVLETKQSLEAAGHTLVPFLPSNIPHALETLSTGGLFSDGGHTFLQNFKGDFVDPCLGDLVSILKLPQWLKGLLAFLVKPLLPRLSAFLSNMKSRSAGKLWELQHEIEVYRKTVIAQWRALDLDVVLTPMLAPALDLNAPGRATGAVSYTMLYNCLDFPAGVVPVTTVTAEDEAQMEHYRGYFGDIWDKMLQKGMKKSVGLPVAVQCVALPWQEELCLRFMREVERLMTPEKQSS
Assay: FAAH enzyme assay, lysate of CHO cells expressing human FAAH
Type: biochemical
Conditions: cell lysate, read-out: FAAH Human Cell Lysate IC50
Source text: To assist in assay development stable cell lines for human, murine and rat full length FAAH were developed. Human FAAH cDNA (Accession No: NM_001441.1) was purchased from Origene (Rockville, Md.). The full length FAAH was subcloned into the mammalian expression vector, pcDEF.neo, using XbaI and […] restriction sites and used for stable cell line generation.
CHO cells expressing FAAH were used to prepare either crude cell lysate or microsome fractions. To harvest cells, tissue culture media was decanted, the monolayer washed three times with Ca^++Mg^++ free PBS and cells recovered after 15 min in enzyme free dissociation media (Millipore Corp, Billerica, Mass.). Cells were collected by centrifuging at 2000 rpm for 15 min. and the cell pellet re-suspended with 50 mM HEPES (pH 7.4) containing 1 mM EDTA and the protease inhibitors aprotinin (1 mg/ml) and leupeptin (100 μM). The suspension was sonicated at 4° C. and the cell lysate recovered after centrifuging at 12,000×g (14,600 rpm, SS34 rotor) for 20 min at 4° C. to form a crude pellet of cell debris, nuclei, peroxisomes, lysosomes, and mitochondria; the supernatant or cell lysate was used for FAAH enzyme assay. In some cases, microsomes fractions enriched in FAAH were prepared by centrifuging the cell lysate further at 27,000 rpm (100,000×g) in SW28 rotor for 50 minutes at 4° C. The pellet containing FAAH-enriched microsomes was re-suspend in 50 mM HEPES, (pH 7.4) 1 mM EDTA, and any remaining DNA sheared by passage of material through a 23 gauge needle and aliquots of enzyme were store at −80° C. prior to use.
(American Radiolabeled Chemicals; 1 mCi/ml) with FAAH (Life Sciences (1995), 56, 1999-2005 and Journal of Pharmacology and Experimented Therapeutics (1997), 283, 729-734), Analytical. Biochemistry (2003), 318, 270-5. In addition, routine assays were performed monitoring hydrolysis of arachidonyl-7-amino-4-methylcoumarin amide (AAMCA) by following increase in fluorescence upon release of 7-amino 4-methyl coumarin (λEX=355 nm, (λEM=460 nm). Analytical. Biochemistry (2005). 343, 143-51.
Assays are performed on either cell lysate or microsome fractions prepared as described or in whole cell format employing either the fluorescent substrate AAMCA (Cayman chemical, Ann Arbor, Mich.,) or ^3H-anandmaide ([ETHANOLAMINE-1-3H]American Radiolabeled Chemicals; 1 mCi/ml). The cell lysate or microsome assay is performed in Costar black wall, clear bottom plates by adding FAAH_CHO (whole cell, cell lysate or microsome) in assay buffer (50 mM Phosphate, pH 8.0, 1 mM EDTA, 200 mM KCl, 0.2% glycerol, 0.1% fatty acid free BSA) to each well, followed by either DMSO or compound and allowed to incubate at 22-25° C. for fifteen minutes. AAMCA substrate was used to achieve a final concentration of 1 μM and reaction allowed to proceed at room temperature for 1-3 hours. Fluorescent release as a measure of FAAH activity was monitored by reading the plate in a CytoFluor Multiplate Reader ([…]). Whole cell assay is conducted with cells harvested after rinsing tissue culture flasks three times with Ca^++Mg^++ free PBS, incubating for 10 mm in Enzyme free dissociation media and centrifuging for 5 minutes at 1,000 rpm in table top centrifuge. Cells are resuspended in assay buffer at desired cell number in (4×10^4 cells/assay in 96-well format; 1×10^4 cells/assay in 384-well format) and assayed as described.
Alternatively, assays are performed using anandamide [ethanolamine 1-^3H] (specific activity of 10 Ci/mmol) diluted with cold anandamide to achieve a final assay concentration of 1 μM anandamide (˜50,000 cpm). Enzyme (CHO cell lysate, brain or liver homogenate) is incubated in assay buffer (50 mM Phosphate, pH 8.0, 1 mM EDTA, 200 mM KCl, 0.2% glycerol, 0.1% fatty acid free BSA) with inhibitor at 25° C. for 30 minutes. The reaction was terminated by addition of 2 volumes of chloroform:methanol (1:1) and mixed by vortexing. […]

Point of comparison: `O=C1NCCc2cc(-c3nn(CCF)cc3Sc3ccc(Cl)cc3)ccc21` [Example 311], pIC50 7.04. Against it:
- 6-{4-[(5-chloropyridin-2-yl)sulfanyl]-1-(2-fluoroethyl)-1H-pyrazol-3-yl}-2-(difluoromethyl)quinoline [Example 333] — within 0.2 log units, 7.10
- O=C1NCCc2cc(-c3nn(-c4ccc(F)cc4)cc3Sc3ccc(Cl)cc3)ccc21 [Example 308, 6-{4-[(4-chlorophenyl)sulfanyl]-1-(4-fluorophenyl)-1H-pyrazol-3-yl}-3,4-dihydroisoquinolin-1(2H)-one] — 0.70 log units higher, 7.74
- CCN1CCc2cc(-c3nn(-c4ccc(F)cc4)cc3Sc3ccc(Cl)cc3)ccc2C1=O [Example 309, 6-{4-[(4-chlorophenyl)sulfanyl]-1-(4-fluorophenyl)-1H-pyrazol-3-yl}-2-ethyl-3,4-dihydroisoquinolin-1(2H)-one] — 0.76 log units higher, 7.80
- O=C1NCCc2cc(-c3n[nH]cc3Sc3ccc(Cl)cc3)ccc21 [Example 310, 6-{4-[(4-chlorophenyl)sulfanyl]-1H-pyrazol-3-yl}-3,4-dihydroisoquinolin-1(2H)-one] — within 0.2 log units, 7.14
- O=c1[nH]cnc2cc(-c3n[nH]cc3Sc3ccc(Cl)cc3)ccc12 [Example 312, 7-{4-[(4-chlorophenyl)sulfanyl]-1H-pyrazol-3-yl}-quinazolin-4(3H)-one] — 0.40 log units lower, 6.64
- O=c1[nH]cnc2cc(-c3nn(-c4ccc(F)cc4)cc3Sc3ccc(Cl)cc3)ccc12 [Example 313, 7-{4-[(4-chlorophenyl)sulfanyl]-1-(4-fluorophenyl)-1H-pyrazol-3-yl}quinazolin-4(3H)-one] — 1.02 log units higher, 8.06
- O=c1c2ccc(-c3nn(C4CC4)cc3Sc3ccc(Cl)cc3)cc2ncn1C1CC1 [Example 314, 7-{4-[(4-chlorophenyl)sulfanyl]-1-cyclopropyl-1H-pyrazol-3-yl}-3-cyclopropylquinazolin-4(3H)-one] — 0.35 log units lower, 6.69
- O=c1[nH]cnc2cc(-c3nn(C4CC4)cc3Sc3ccc(Cl)cc3)ccc12 [Example 315, 7-{4-[(4-chlorophenyl)sulfanyl]-1-cyclopropyl-1H-pyrazol-3-yl}quinazolin-4(3H)-one] — within 0.2 log units, 7.07
- CN(C)C(=O)c1ccc2cc(-c3n[nH]cc3Sc3ccc(Cl)cn3)ccc2n1 [Example 330, 6-{4-[(5-chloropyridin-2-yl)sulfanyl]-1H-pyrazol-3-yl}-N,N-dimethylquinoline-2-carboxamide] — 1.20 log units higher, 8.24
- CN(C)C(=O)c1ccc2cc(-c3nn(C4CC4)cc3Sc3ccc(Cl)cn3)ccc2n1 [Example 331, 6-{4-[(5-chloropyridin-2-yl)sulfanyl]-1-cyclopropyl-1H-pyrazol-3-yl}-N,N-dimethylquinoline-2-carboxamide] — within 0.2 log units, 7.11
- FC(F)c1ccc2cc(-c3n[nH]cc3Sc3ccc(Cl)cn3)ccc2n1 [Example 332] — 0.47 log units lower, 6.57
- O=C1NCCc2cc(-c3nn(-c4ccccn4)cc3Sc3ccc(Cl)cc3)ccc21 [Example 335] — 1.06 log units higher, 8.10
- CCN1CCc2cc(-c3nn(-c4ccccn4)cc3Sc3ccc(Cl)cc3)ccc2C1=O [Example 338] — 1.18 log units higher, 8.22
- O=C1c2ccc(-c3nn(-c4ccccn4)cc3Sc3ccc(Cl)cc3)cc2CCN1CCF [Example 339] — 1.53 log units higher, 8.57
- CCN1CCc2cc(-c3nn(CC)cc3Sc3ccc(Cl)cc3)ccc2C1=O [Example 340] — 0.56 log units higher, 7.60
- CCn1cc(Sc2ccc(Cl)cc2)c(-c2ccc3c(c2)CCN(CCF)C3=O)n1 [Example 341] — 0.29 log units higher, 7.33
- CCn1cc(-n2cc(Sc3ccc(Cl)cc3)c(-c3ccc4c(c3)CCNC4=O)n2)cn1 [Example 344] — 0.76 log units higher, 7.80
- O=C1CCc2cc(-c3nn(-c4ccccn4)cc3Sc3ccc(Cl)cc3)ccc2N1 [Example 345] — 0.40 log units higher, 7.44
- O=C1CCc2cc(-c3nn(-c4ccccn4)cc3Sc3ccc(Cl)cc3)ccc2N1CCF [Example 346] — 0.78 log units higher, 7.82
- CCn1cc(-n2cc(Sc3ccc(Cl)cc3)c(-c3ccc4c(=O)[nH]cnc4c3)n2)cn1 [Example 347] — 0.88 log units higher, 7.92
- CCn1cc(-n2cc(Sc3ccc(Cl)cc3)c(-c3ccc4c(=O)n(-c5cnn(CC)c5)cnc4c3)n2)cn1 [Example 348] — 0.40 log units higher, 7.44
- CC(C)(O)c1ccc(-c2nn(-c3ccc(F)cn3)cc2Sc2ccc(Cl)cc2)nn1 [Example 349] — within 0.2 log units, 7.23
- CC(C)(O)c1ccc(-c2nn(-c3ccc(F)cn3)cc2Sc2ccc(Cl)cn2)nn1 [Example 350] — within 0.2 log units, 6.99
- CC(C)(O)c1ccc(-c2nn(-c3cnn(C4CC4)c3)cc2Sc2ccc(Cl)cc2)nn1 [Example 351] — 0.43 log units lower, 6.61
- CCOC(=O)c1ccc2cc(-c3nn(C)cc3Sc3ccc(Cl)cc3)ccc2n1 [Example 352] — 1.62 log units higher, 8.66
- Cn1cc(Sc2ccc(Cl)cc2)c(-c2ccc3nc(C(N)=O)ccc3c2)n1 [Example 353] — 2.29 log units higher, 9.33
- CCOC(=O)c1ccc2cc(-c3n[nH]cc3Sc3ccc(Cl)cc3)ccc2n1 [Example 354] — 1.99 log units higher, 9.03
- CCNC(=O)c1ccc2cc(-c3n[nH]cc3Sc3ccc(Cl)cc3)ccc2n1 [Example 355] — 1.82 log units higher, 8.86
- CC(C)(O)c1ccc2cc(-c3nn(CCF)cc3Sc3ccc(Cl)cc3)ccc2n1 [Example 357] — within 0.2 log units, 6.92
- CC(C)(O)c1ccc2cc(-c3n[nH]cc3Sc3ccc(Cl)cc3)ccc2n1 [Example 358] — 0.67 log units lower, 6.37
- CC(=O)N1CCc2cc(-c3n[nH]cc3Sc3ccc(Cl)cc3)ccc2C1 [Example 359] — within 0.2 log units, 7.00
- CC(=O)N1CCc2cc(-c3nn(C4CC4)cc3Sc3ccc(Cl)cc3)ccc2C1 [Example 360] — 0.97 log units higher, 8.01
- CC(=O)N1CCc2cc(-c3nn(CCF)cc3Sc3ccc(Cl)cc3)ccc2C1 [Example 362] — 0.28 log units higher, 7.32
- N#Cc1ccc2cc(-c3n[nH]cc3Sc3ccc(Cl)cc3)ccc2n1 [Example 363] — 0.60 log units higher, 7.64
- Cn1cc(Sc2ccc(Cl)cc2)c(-c2ccc3nc(C#N)ccc3c2)n1 [Example 364] — within 0.2 log units, 6.88
- CCNC(=O)c1ccc2cc(-c3nn(CCF)cc3Sc3ccc(Cl)cc3)ccc2n1 [Example 366] — 1.10 log units higher, 8.14
- CCNC(=O)c1ccc2cc(-c3nn(CC(F)F)cc3Sc3ccc(Cl)cc3)ccc2n1 [Example 367] — 0.66 log units higher, 7.70
- CCNC(=O)c1ccc2cc(-c3nn(C(C)C)cc3Sc3ccc(Cl)cc3)ccc2n1 [Example 368] — 0.58 log units higher, 7.62
- CCNC(=O)c1ccc2cc(-c3nn(CC4CC4)cc3Sc3ccc(Cl)cc3)ccc2n1 [Example 369] — 1.76 log units higher, 8.80
- CCNC(=O)c1ccc2cc(-c3nn(CC(C)C)cc3Sc3ccc(Cl)cc3)ccc2n1 [Example 370] — 0.88 log units higher, 7.92
- CCOC(=O)c1cnc2cc(-c3nn(CCF)cc3Sc3ccc(Cl)cc3)ccc2c1 [Example 371] — 1.36 log units higher, 8.40
- OCc1ccc2cc(-c3nn(CCF)cc3Sc3ccc(Cl)cc3)ccc2n1 [Example 372] — 0.48 log units higher, 7.52
